In brackets after ≈: the same amount, converted by molar mass.
Experiments:
Assay in all cases: Antibacterial activity in vitro, MIC by broth microdilution
E. faecalis Enfa_29212 = type: cell-based; conditions: Table 5, Strain ID D: E. faecalis Enfa_29212; unit assumed
Outline: (§1)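 Visible-growth inhibition defined the MIC, obtained by NCCLS broth microdilution at 35° C. over 18-24 hours with a final inoculum of 3×10^5–7×10^5 CFU/mL.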

S. aureus Stau_29213 = type: cell-based; conditions: Table 5, Strain ID A: S. aureus Stau_29213; unit assumed
Outline: as §1

[1] = test system: S. epidermidis Step_14990; type: cell-based; conditions: Table 5, Strain ID B: S. epidermidis Step_14990; unit assumed
Outline: as §1

[2] = test system: S. epidermidis Step_f50654 Pen S; type: cell-based; conditions: Table 5, Strain ID C: S. epidermidis Step_f50654; unit assumed
Outline: as §1

S. pyogenes Stpy_8668 = type: cell-based; conditions: Table 5, Strain ID E: S. pyogenes Stpy_8668
Outline: as §1

[3] = test system: S. pneumoniae Stpn_280-962 Pen S; type: cell-based, Streptococcus pneumoniae; conditions: Table 5, Strain ID H: S. pneumoniae Stpn_280-962
Outline: as §1

[4] = test system: S. pneumoniae Stpn_297-749 Pen R; type: cell-based, Streptococcus pneumoniae; conditions: Table 5, Strain ID G: S. pneumoniae Stpn_297-749
Outline: as §1

S. pneumoniae Stpn_49619 = type: cell-based, Streptococcus pneumoniae; conditions: Table 5, Strain ID F: S. pneumoniae Stpn_49619
Outline: as §1

[5] = test system: S. pneumoniae Stpn_Erm 6849; type: cell-based, Streptococcus pneumoniae; conditions: Table 5, Strain ID I: S. pneumoniae Stpn_Erm 6849
Outline: as §1

[6] = test system: S. pneumoniae Stpn_Erm S 4297; type: cell-based, Streptococcus pneumoniae; conditions: Table 5, Strain ID J: S. pneumoniae Stpn_Erm S 4297
Outline: as §1

[7] = test system: S. pneumoniae Stpn_Mef 5654; type: cell-based, Streptococcus pneumoniae; conditions: Table 5, Strain ID K: S. pneumoniae Stpn_Mef 5654; unit assumed
Outline: as §1

[8] = test system: S. pneumoniae Stpn_Mef S 3427; type: cell-based, Streptococcus pneumoniae; conditions: Table 5, Strain ID L: S. pneumoniae Stpn_Mef S 3427; unit assumed
Outline: as §1

H. influenzae Hain_49247 = type: cell-based, Haemophilus influenzae; conditions: Table 5, Strain ID M: H. influenzae Hain_49247; unit assumed
Outline: as §1

SMILES	MIC (E. faecalis Enfa_29212)	MIC (S. aureus Stau_29213)	MIC [1]	MIC [2]	MIC (S. pyogenes Stpy_8668)	MIC [3]	MIC [4]	MIC (S. pneumoniae Stpn_49619)	MIC ([5]; unit assumed)	MIC ([6]; unit assumed)	MIC [7]	MIC [8]	MIC (H. influenzae Hain_49247)	MIC [6]	MIC (S. pneumoniae Stpn_49619; unit assumed)	MIC [5]	MIC (S. pyogenes Stpy_8668; unit assumed)	MIC ([3]; unit assumed)	MIC ([4]; unit assumed)
CC[C@H]1OC(=O)[C@@](C)(F)C(=O)[C@H](C)[C@@H](OC2O[C@H](C)C[C@H](N(C)C)[C@H]2O)[C@@](C)(OC)C[C@@H](C)C(=O)[C@H](C)[C@H]2N(CCCCn3cnc(-c4ccc(C)nc4)c3)C(=O)O[C@]12CC (stereo partly drawn) [Example 30, (3aS,4R,7S,9R,10R,11S,13R,15R,15aR)-3a,4-diethyl-7-fluoro-11-methoxy-7,9,11,13,15-pentamethyl-1-{4-[4-(6-methylpyridin-3-yl)-1H-imidazol-1-yl]butyl}-2,6,8,14-tetraoxotetradecahydro-2H-oxacyclotetradecino[4,3-d][1,3]oxazol-10-yl 3,4,6-trideoxy-3-(dimethylamino)-D-xylo-hexopyranoside]	0.2 µg/mL (≈ 0.233 µM)	0.2 µg/mL (≈ 0.233 µM)	0.2 µg/mL (≈ 0.233 µM)	0.4 µg/mL (≈ 0.466 µM)	≦0.05	≦0.05	≦0.05	≦0.05	0.4 µg/mL (≈ 0.466 µM)	0.1 µg/mL (≈ 0.117 µM)	0.78 µg/mL (≈ 0.909 µM)	0.1 µg/mL (≈ 0.117 µM)	6.25 µg/mL (≈ 7.28 µM)						
CC[C@H]1OC(=O)[C@H](C)C(=O)[C@H](C)[C@@H](OC2O[C@H](C)C[C@H](N(C)C)[C@H]2O)[C@@](C)(OC)C[C@@H](C)C(=O)[C@H](C)[C@H]2N(CCCC(C)(C)n3cnc(-c4cccnc4)c3)C(=O)O[C@]12CC (stereo partly drawn) [Example 31, (3aS,4R,7R,9R,10R,11S,13R,15R,15aR)-3a,4-diethyl-11-methoxy-7,9,11,13,15-pentamethyl-1-[4-methyl-4-(4-pyridin-3-yl-1H-imidazol-1-yl)pentyl]-2,6,8,14-tetraoxotetradecahydro-2H-oxacyclotetradecino[4,3-d][1,3]oxazol-10-yl 3,4,6-trideoxy-3-(dimethylamino)-D-xylo-hexopyranoside]	0.2 µg/mL (≈ 0.234 µM)	0.2 µg/mL (≈ 0.234 µM)	0.4 µg/mL (≈ 0.468 µM)	0.4 µg/mL (≈ 0.468 µM)	≦0.05	≦0.05	≦0.05	≦0.05	0.4 µg/mL (≈ 0.468 µM)	0.2 µg/mL (≈ 0.234 µM)	0.78 µg/mL (≈ 0.913 µM)	0.2 µg/mL (≈ 0.234 µM)	6.25 µg/mL (≈ 7.32 µM)						
CC[C@H]1OC(=O)[C@@](C)(F)C(=O)[C@H](C)[C@@H](OC2O[C@H](C)C[C@H](N(C)C)[C@H]2O)[C@@](C)(OC)C[C@@H](C)C(=O)[C@H](C)[C@H]2N(CCCC(C)(C)n3cnc(-c4cccnc4)c3)C(=O)O[C@]12CC (stereo partly drawn) [Example 32, (3aS,4R,7S,9R,10R,11S,13R,15R,15aR)-3a,4-diethyl-7-fluoro-11-methoxy-7,9,11,13,15-pentamethyl-1-[4-methyl-4-(4-pyridin-3-yl-1H-imidazol-1-yl)pentyl]-2,6,8,14-tetraoxotetradecahydro-2H-oxacyclotetradecino [4,3-d][1,3]oxazol-10-yl 3,4,6-trideoxy-3-(dimethylamino)-D-xylo-hexopyranoside]	0.02 µg/mL (≈ 0.0229 µM)	0.2 µg/mL (≈ 0.229 µM)	0.4 µg/mL (≈ 0.459 µM)	0.4 µg/mL (≈ 0.459 µM)	≦0.05	≦0.05	≦0.05	≦0.05	0.2 µg/mL (≈ 0.229 µM)		0.78 µg/mL (≈ 0.894 µM)	0.2 µg/mL (≈ 0.229 µM)	6.25 µg/mL (≈ 7.17 µM)	≦0.05					
CC[C@H]1OC(=O)[C@H](C)C(=O)[C@H](C)[C@@H](OC2O[C@H](C)C[C@H](N(C)C)[C@H]2O)[C@@](C)(OC)C[C@@H](C)C(=O)[C@H](C)[C@H]2N(CCCCn3cnc(-c4ccc(F)nc4)c3)C(=O)O[C@]12CC (stereo partly drawn) [Example 33, (3aS,4R,7R,9R,10R,11S,13R,15R,15aR)-3a,4-diethyl-1-{4-[4-(6-fluoropyridin-3-yl)-1H-imidazol-1-yl]butyl}-11-methoxy-7,9,11,13,15-pentamethyl-2,6,8,14-tetraoxotetradecahydro-2H-oxacyclotetradecino[4,3-d][1,3]oxazol-10-yl 3,4,6-trideoxy-3-(dimethylamino)-D-xylo-hexopyranoside]	0.1 µg/mL (≈ 0.118 µM)	0.4 µg/mL (≈ 0.474 µM)	0.2 µg/mL (≈ 0.237 µM)	0.2 µg/mL (≈ 0.237 µM)	≦0.05	≦0.05	≦0.05			0.4 µg/mL (≈ 0.474 µM)	0.1 µg/mL (≈ 0.118 µM)	0.4 µg/mL (≈ 0.474 µM)	0.1 µg/mL (≈ 0.118 µM)		3.13 µg/mL (≈ 3.71 µM)	≦0.05			
CC[C@H]1OC(=O)[C@H](C)C(=O)[C@H](C)[C@@H](OC2O[C@H](C)C[C@H](N(C)C)[C@H]2O)[C@@](C)(OC)C[C@@H](C)C(=O)[C@H](C)[C@H]2N(CCCCc3ncc(-c4cccc(N)c4)s3)C(=O)O[C@]12CC (stereo partly drawn) [Example 34, (3aS,4R,7R,9R,10R,11S,13R,15R,15aR)-1-{4-[5-(3-aminophenyl)-1,3-thiazol-2-yl]butyl}-3a,4-diethyl-11-methoxy-7,9,11,13,15-pentamethyl-2,6,8,14-tetraoxotetradecahydro-2H-oxacyclotetradecino[4,3-d][1,3]oxazol-10-yl 3,4,6-trideoxy-3-(dimethylamino)-D-xylo-hexopyranoside]	0.1 µg/mL (≈ 0.117 µM)	0.4 µg/mL (≈ 0.467 µM)	0.2 µg/mL (≈ 0.233 µM)	0.2 µg/mL (≈ 0.233 µM)	≦0.05	≦0.05	≦0.05			12.5 µg/mL (≈ 14.6 µM)	0.2 µg/mL (≈ 0.233 µM)	0.4 µg/mL (≈ 0.467 µM)	0.1 µg/mL (≈ 0.117 µM)		3.13 µg/mL (≈ 3.65 µM)	≦0.05			
CC[C@H]1OC(=O)[C@H](C)C(=O)[C@H](C)[C@@H](OC2O[C@H](C)C[C@H](N(C)C)[C@H]2O)[C@@](C)(OC)C[C@@H](C)C(=O)[C@H](C)[C@H]2N(CCCOc3cccc(-c4cccnc4)c3)C(=O)O[C@]12CC (stereo partly drawn) [Example 35, (3aS,4R,7R,9R,10R,11S,13R,15R,15aR)-3a,4-diethyl-11-methoxy-7,9,11,13,15-pentamethyl-2,6,8,14-tetraoxo-1-[3-(3-pyridin-3-ylphenoxy)propyl]-tetradecahydro-2H-oxacyclotetradecino[4,3-d][1,3]oxazol-10-yl 3,4,6-trideoxy-3-(dimethylamino)-D-xylo-hexopyranoside]	0.2 µg/mL (≈ 0.239 µM)	0.78 µg/mL (≈ 0.931 µM)	0.78 µg/mL (≈ 0.931 µM)	0.78 µg/mL (≈ 0.931 µM)		≦0.05	≦0.05			3.13 µg/mL (≈ 3.73 µM)	0.78 µg/mL (≈ 0.931 µM)	0.78 µg/mL (≈ 0.931 µM)	0.2 µg/mL (≈ 0.239 µM)		6.25 µg/mL (≈ 7.46 µM)	≦0.05	0.2 µg/mL (≈ 0.239 µM)		
CC[C@H]1OC(=O)[C@H](C)C(=O)[C@H](C)[C@@H](OC2O[C@H](C)C[C@H](N(C)C)[C@H]2O)[C@@](C)(OC)C[C@@H](C)C(=O)[C@H](C)[C@H]2N(CCCOc3ccc(-c4cccnc4)cc3)C(=O)O[C@]12CC (stereo partly drawn) [Example 36, (3aS,4R,7R,9R,10R,11S,13R,15R,15aR)-3a,4-diethyl-11-methoxy-7,9,11,13,15-pentamethyl-2,6,8,14-tetraoxo-1-[3-(4-pyridin-3-ylphenoxy)propyl]-tetradecahydro-2H-oxacyclotetradecino[4,3-d][1,3]oxazol-10-yl 3,4,6-trideoxy-3-(dimethylamino)-D-xylo-hexopyranoside]	0.78 µg/mL (≈ 0.931 µM)	6.25 µg/mL (≈ 7.46 µM)	1.56 µg/mL (≈ 1.86 µM)	0.78 µg/mL (≈ 0.931 µM)					0.1 µg/mL (≈ 0.119 µM)	12.5 µg/mL (≈ 14.9 µM)	12.5 µg/mL (≈ 14.9 µM)	0.78 µg/mL (≈ 0.931 µM)	0.2 µg/mL (≈ 0.239 µM)		25 µg/mL (≈ 29.8 µM)		0.4 µg/mL (≈ 0.477 µM)	0.1 µg/mL (≈ 0.119 µM)	0.1 µg/mL (≈ 0.119 µM)
CC[C@H]1OC(=O)[C@H](C)C(=O)[C@H](C)[C@@H](OC2O[C@H](C)C[C@H](N(C)C)[C@H]2O)[C@@](C)(OC)C[C@@H](C)C(=O)[C@H](C)[C@H]2N(CCCC(C)(C)n3cnc4ncccc43)C(=O)O[C@]12CC (stereo partly drawn) [Example 37, (3aS,4R,7R,9R,10R,11S,13R,15R,15aR)-3a,4-diethyl-1-[4-(1H-imidazo[4,5-b]pyridin-1-yl)-4-methylpentyl]-11-methoxy-7,9,11,13,15-pentamethyl-2,6,8,14-tetraoxotetradecahydro-2H-oxacyclotetradecino[4,3-d][1,3]oxazol-10-yl 3,4,6-trideoxy-3-(dimethylamino)-D-xylo-hexopyranoside]	0.1 µg/mL (≈ 0.121 µM)	0.4 µg/mL (≈ 0.483 µM)	0.2 µg/mL (≈ 0.242 µM)	0.2 µg/mL (≈ 0.242 µM)	≦0.05	≦0.05	≦0.05	≦0.05	0.4 µg/mL (≈ 0.483 µM)	0.1 µg/mL (≈ 0.121 µM)	1.56 µg/mL (≈ 1.88 µM)	0.2 µg/mL (≈ 0.242 µM)	6.25 µg/mL (≈ 7.55 µM)						
